Assay results as given in US20070167631A1, “Novel herbicides” (priority 2003, published 2007).

Experiments:
Experiment in all cases: Microscreen, post-emergence herbicidal action (Example B3)
Format in all cases: in vivo
Details in all cases: 250 g/ha, evaluated after 9 or 13 days, scale of eleven ratings (10=total damage, 0=no action)
[1] = system: Nasturtium
Description: (§1) Example B3 Microscreen, Post-Emergence Herbicidal Action Monocotyledonous and dicotyledonous test plants are sown in sterilised standard soil in seed trays each having 96 cells. […] The plants are grown on in the climatic chamber until the test is evaluated after 9 or 13 days. The test is evaluated in accordance with a scale of eleven ratings (10=total damage, 0=no action). Ratings of from 10 to 7 (especially from 10 to 8) indicate very good to good herbicidal action.

[2] = system: Solanum
Description: as §1

[3] = system: Amaranthus
Description: as §1

[4] = system: Stellaria
Description: (§2) Example B3 Microscreen, Post-Emergence Herbicidal Action Monocotyledonous and dicotyledonous test plants are sown in sterilised standard soil in seed trays each having 96 cells. After 8 to 9 days' cultivation under controlled conditions in a climatic chamber (cultivation at 17/23° C.; 13 hours' light; 50-60% humidity; after application at 19/24° C.), the plants are treated with an aqueous spray solution of 1000 mg/l of the active ingredient used ([…]; incl. 10% DMSO as solvent). The plants are grown on in the climatic chamber until the test is evaluated after 9 or 13 days. The test is evaluated in accordance with a scale of eleven ratings (10=total damage, 0=no action). Ratings of from 10 to 7 (especially from 10 to 8) indicate very good to good herbicidal action.

[5] = system: Digitaria
Description: as §2

`Cc1cc(-c2nc(C(=O)C3=C(O)CCCC3=O)ccc2C(F)(F)F)on1` [Compound 1.204] was tested, and the “Nasturtium, herbicidal action rating” value [1] was 10, the “Solanum, herbicidal action rating” value [2] was 10 and the “Amaranthus, herbicidal action rating” value [3] was 10. The “Stellaria, herbicidal action rating” value [4] was 10 and the “Digitaria, herbicidal action rating” value [5] was 8.

For `N#Cc1nc(C(=O)C2=C(O)CCCC2=O)ccc1C(F)(F)F` [Compound 1.212], the “Nasturtium, herbicidal action rating” value [1] was 8, the “Solanum, herbicidal action rating” value [2] was 8 and the “Amaranthus, herbicidal action rating” value [3] was 7. The “Stellaria, herbicidal action rating” value [4] was 7 and the “Digitaria, herbicidal action rating” value [5] was 3.

With `CC1CN(c2nc(C(=O)C3=C(O)C(C)(C)C(=O)C(C)(C)C3=O)ccc2C(F)(F)F)CC(C)O1` (stereo not shown) [Compound 2.075] the “Nasturtium, herbicidal action rating” value [1] was 10, the “Solanum, herbicidal action rating” value [2] was 10 and the “Amaranthus, herbicidal action rating” value [3] was 6. The “Stellaria, herbicidal action rating” value [4] was 9 and the “Digitaria, herbicidal action rating” value [5] was 7.

For `COCCNc1nc(C(=O)C2=C(O)C(C)(C)C(=O)C(C)(C)C2=O)ccc1C(F)(F)F` [Compound 2.064], the “Nasturtium, herbicidal action rating” value [1] was 10, the “Solanum, herbicidal action rating” value [2] was 10 and the “Amaranthus, herbicidal action rating” value [3] was 8. For the same compound, the “Stellaria, herbicidal action rating” value [4] was 10 and the “Digitaria, herbicidal action rating” value [5] was 9.

In the case of `O=C1CCCC(O)=C1C(=O)c1ccc(C(F)(F)F)c(-c2ccc(C(F)(F)F)cc2)n1` [Compound 1.209], the “Nasturtium, herbicidal action rating” value [1] is reported as 9, the “Solanum, herbicidal action rating” value [2] is reported as 9 and the “Amaranthus, herbicidal action rating” value [3] is reported as 9. For the same compound, the “Stellaria, herbicidal action rating” value [4] was 9 and the “Digitaria, herbicidal action rating” value [5] was 8.

For `CN(C(=O)c1ccccc1)c1nc(C(=O)C2=C(O)C(C)(C)C(=O)C(C)(C)C2=O)ccc1C(F)(F)F` [Compound 2.090], the “Nasturtium, herbicidal action rating” value [1] was 10, the “Solanum, herbicidal action rating” value [2] was 10 and the “Amaranthus, herbicidal action rating” value [3] was 6. For the same compound, the “Stellaria, herbicidal action rating” value [4] was 8 and the “Digitaria, herbicidal action rating” value [5] was 2.

With `CCN(CC)c1nc(C(=O)C2=C(O)C(C)(C)C(=O)C(C)(C)C2=O)ccc1C(F)(F)F` [Compound 2.060] the “Nasturtium, herbicidal action rating” value [1] was 10, the “Solanum, herbicidal action rating” value [2] was 10 and the “Amaranthus, herbicidal action rating” value [3] was 9. For the same compound, the “Stellaria, herbicidal action rating” value [4] was 10 and the “Digitaria, herbicidal action rating” value [5] was 9.

For `CN(C)c1nc(C(=O)C2=C(O)CCCC2=O)ccc1C(F)(F)F` [Compound 1.059], the “Nasturtium, herbicidal action rating” value [1] was 9, the “Solanum, herbicidal action rating” value [2] was 9 and the “Amaranthus, herbicidal action rating” value [3] was 7. For the same compound, the “Stellaria, herbicidal action rating” value [4] was 9 and the “Digitaria, herbicidal action rating” value [5] was 7.

In the case of `CCN(CC)c1nc(C(=O)C2=C(O)CCCC2=O)ccc1C(F)(F)F` [Compound 1.060], the “Nasturtium, herbicidal action rating” value [1] is reported as 9, the “Solanum, herbicidal action rating” value [2] is reported as 8 and the “Amaranthus, herbicidal action rating” value [3] is reported as 8. For the same compound, the “Stellaria, herbicidal action rating” value [4] was 7 and the “Digitaria, herbicidal action rating” value [5] was 4.

For `O=C1CCCC(O)=C1C(=O)c1ccc(C(F)(F)F)c(-n2cncn2)n1` [Compound 1.082], the “Nasturtium, herbicidal action rating” value [1] was 10, the “Solanum, herbicidal action rating” value [2] was 9 and the “Amaranthus, herbicidal action rating” value [3] was 6. The “Stellaria, herbicidal action rating” value [4] was 10 and the “Digitaria, herbicidal action rating” value [5] was 3.

In the case of `CC1(c2nc(C(=O)C3=C(O)CCCC3=O)ccc2C(F)(F)F)OCCO1` [Compound 1.192], the “Nasturtium, herbicidal action rating” value [1] is reported as 10, the “Solanum, herbicidal action rating” value [2] is reported as 9 and the “Amaranthus, herbicidal action rating” value [3] is reported as 8. For the same compound, the “Stellaria, herbicidal action rating” value [4] was 9 and the “Digitaria, herbicidal action rating” value [5] was 7.
